Assay results reported in PubChem BioAssay AID1963847 (Molecular Pharmacology Branch, DTP, NCI, 2024).

Tested on: 415267-285-R-J2-PDC complex spheroid viability
Assay: Anticancer human tumor 415267-285-R-J2-PDC patient-derived breast carcinoma cell line growth inhibition [POLQ]
Settings: for IC50: curve of first compound; for viability, T/C: stronger effect = lower value
How it was run: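 Complex spheroid viability model combining PDC tumour cells with endothelial (HUVEC) and MSC stromal cells. Novobiocin, ART-558 or RP6685 were tested singly and in combination with standard and investigational anticancer drugs. Each was titrated in half-log steps from near clinical Cmax, or from 10 microM where Cmax was unknown.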

[1] = second compound 0.0316 µM, first compound 0.0316 µM
[2] = second compound 0.0316 µM, first compound 0.1 µM
[3] = second compound 0.1 µM, first compound 0.0316 µM
[4] = second compound 0.1 µM, first compound 0.1 µM
[5] = second compound 0.316 µM, first compound 0.0316 µM
[6] = second compound 0.316 µM, first compound 0.1 µM
[7] = second compound 1 µM, first compound 0.0316 µM
[8] = second compound 1 µM, first compound 0.1 µM
[9] = second compound 3.16 µM, first compound 0.0316 µM
[10] = second compound 3.16 µM, first compound 0.1 µM
[11] = second compound 10 µM, first compound 0.0316 µM
[12] = second compound 10 µM, first compound 0.1 µM
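Further: spheroids exposed to compounds for one week before readout.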
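Wherever viability, T/C is given: luminescence used as stand-in measure of viable cells; 100% = DMSO vehicle control viability.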

`CC(=O)O[C@H]1C(=O)[C@@]2(C)[C@H]([C@H](OC(=O)c3ccccc3)[C@]3(O)C[C@H](OC(=O)[C@H](O)[C@@H](NC(=O)c4ccccc4)c4ccccc4)C(C)=C1C3(C)C)[C@]1(OC(C)=O)CO[C@@H]1C[C@@H]2O` + COC1C(OC(N)=O)C(O)C(Oc2ccc3c(O)c(NC(=O)c4ccc(O)c(CC=C(C)C)c4)c(=O)oc3c2C)OC1(C)C showed an IC50 (second compound 0.0316 µM) of under 9.49 nM, an IC50 (second compound 0.1 µM) of under 9.49 nM and an IC50 (second compound 0.316 µM) of under 9.49 nM. The IC50 (second compound 1 µM) was under 9.49 nM, the IC50 (second compound 3.16 µM) was under 9.49 nM and the IC50 (second compound 10 µM) was under 9.49 nM. The viability, T/C (second compound 0.0316 µM, first compound 0.00949 µM) was 13.6%, the viability, T/C (second compound 0.0316 µM, first compound 0.03 µM) was 9.68% and the viability, T/C (second compound 0.0316 µM, first compound 0.0949 µM) was 8.14%. It also gave a viability, T/C (second compound 0.0316 µM, first compound 0.3 µM) of 6.55%, a viability, T/C (second compound 0.0316 µM, first compound 0.949 µM) of 8.38% and a viability, T/C (second compound 0.0316 µM, first compound 3 µM) of 8.03%. It also gave a viability, T/C (second compound 0.1 µM, first compound 0.00949 µM) of 11%, a viability, T/C (second compound 0.1 µM, first compound 0.03 µM) of 8.15% and a viability, T/C (second compound 0.1 µM, first compound 0.0949 µM) of 7.43%. The viability, T/C (second compound 0.1 µM, first compound 0.3 µM) was 7.95%, the viability, T/C (second compound 0.1 µM, first compound 0.949 µM) was 8.29% and the viability, T/C (second compound 0.1 µM, first compound 3 µM) was 9.45%. The viability, T/C (second compound 0.316 µM, first compound 0.00949 µM) was 13.1%, the viability, T/C (second compound 0.316 µM, first compound 0.03 µM) was 9.7% and the viability, T/C (second compound 0.316 µM, first compound 0.0949 µM) was 7.34%. The viability, T/C (second compound 0.316 µM, first compound 0.3 µM) was 8.56%, the viability, T/C (second compound 0.316 µM, first compound 0.949 µM) was 8.09% and the viability, T/C (second compound 0.316 µM, first compound 3 µM) was 7.17%. For the same molecule, the viability, T/C (second compound 1 µM, first compound 0.00949 µM) was 12.9%, the viability, T/C (second compound 1 µM, first compound 0.03 µM) was 8.82% and the viability, T/C (second compound 1 µM, first compound 0.0949 µM) was 8.23%. The viability, T/C (second compound 1 µM, first compound 0.3 µM) was 8.01%, the viability, T/C (second compound 1 µM, first compound 0.949 µM) was 8.58% and the viability, T/C (second compound 1 µM, first compound 3 µM) was 7.75%. It also gave a viability, T/C (second compound 3.16 µM, first compound 0.00949 µM) of 13%, a viability, T/C (second compound 3.16 µM, first compound 0.03 µM) of 10.4% and a viability, T/C (second compound 3.16 µM, first compound 0.0949 µM) of 8%. It also gave a viability, T/C (second compound 3.16 µM, first compound 0.3 µM) of 7.65%, a viability, T/C (second compound 3.16 µM, first compound 0.949 µM) of 8.33% and a viability, T/C (second compound 3.16 µM, first compound 3 µM) of 8.3%. For the same molecule, the viability, T/C (second compound 10 µM, first compound 0.00949 µM) was 24.1%, the viability, T/C (second compound 10 µM, first compound 0.03 µM) was 9.1% and the viability, T/C (second compound 10 µM, first compound 0.0949 µM) was 7.75%. For the same molecule, the viability, T/C (second compound 10 µM, first compound 0.3 µM) was 8.73%, the viability, T/C (second compound 10 µM, first compound 0.949 µM) was 6.75% and the viability, T/C (second compound 10 µM, first compound 3 µM) was 9.23%.

For `CC[C@@]1(O)C(=O)OCc2c1cc1n(c2=O)Cc2cc3c(CN(C)C)c(O)ccc3nc2-1` + COC1C(OC(N)=O)C(O)C(Oc2ccc3c(O)c(NC(=O)c4ccc(O)c(CC=C(C)C)c4)c(=O)oc3c2C)OC1(C)C, the IC50 (second compound 0.0316 µM) was 18.5 nM, the IC50 (second compound 0.1 µM) was 22.6 nM and the IC50 (second compound 0.316 µM) was 22 nM. For the same molecule, the IC50 (second compound 1 µM) was 19.3 nM, the IC50 (second compound 3.16 µM) was 19.4 nM and the IC50 (second compound 10 µM) was 19.6 nM. For the same molecule, the viability, T/C (second compound 0.0316 µM, first compound 0.000316 µM) was 101%, the viability, T/C (second compound 0.0316 µM, first compound 0.001 µM) was 99% and the viability, T/C (second compound 0.0316 µM, first compound 0.00316 µM) was 101%. It also gave a viability, T/C (second compound 0.0316 µM, first compound 0.01 µM) of 82%, a viability, T/C [1] of 22.1% and a viability, T/C [2] of 9.06%. The viability, T/C (second compound 0.1 µM, first compound 0.000316 µM) was 94%, the viability, T/C (second compound 0.1 µM, first compound 0.001 µM) was 98.6% and the viability, T/C (second compound 0.1 µM, first compound 0.00316 µM) was 97.4%. The viability, T/C (second compound 0.1 µM, first compound 0.01 µM) was 83.3%, the viability, T/C [3] was 36.1% and the viability, T/C [4] was 8.11%. It also gave a viability, T/C (second compound 0.316 µM, first compound 0.000316 µM) of 90%, a viability, T/C (second compound 0.316 µM, first compound 0.001 µM) of 101% and a viability, T/C (second compound 0.316 µM, first compound 0.00316 µM) of 103%. For the same molecule, the viability, T/C (second compound 0.316 µM, first compound 0.01 µM) was 107%, the viability, T/C [5] was 26.7% and the viability, T/C [6] was 10.8%. The viability, T/C (second compound 1 µM, first compound 0.000316 µM) was 93.6%, the viability, T/C (second compound 1 µM, first compound 0.001 µM) was 99.7% and the viability, T/C (second compound 1 µM, first compound 0.00316 µM) was 88.6%. For the same molecule, the viability, T/C (second compound 1 µM, first compound 0.01 µM) was 84.6%, the viability, T/C [7] was 24.1% and the viability, T/C [8] was 8.54%. For the same molecule, the viability, T/C (second compound 3.16 µM, first compound 0.000316 µM) was 98.4%, the viability, T/C (second compound 3.16 µM, first compound 0.001 µM) was 97.4% and the viability, T/C (second compound 3.16 µM, first compound 0.00316 µM) was 105%. The viability, T/C (second compound 3.16 µM, first compound 0.01 µM) was 94%, the viability, T/C [9] was 17.8% and the viability, T/C [10] was 7.35%. It also gave a viability, T/C (second compound 10 µM, first compound 0.000316 µM) of 103%, a viability, T/C (second compound 10 µM, first compound 0.001 µM) of 107% and a viability, T/C (second compound 10 µM, first compound 0.00316 µM) of 107%. It also gave a viability, T/C (second compound 10 µM, first compound 0.01 µM) of 85.8%, a viability, T/C [11] of 24.6% and a viability, T/C [12] of 7.99%.

Work on `COc1cc(C2c3cc4c(cc3C(OC3OC5COC(C)OC5C(O)C3O)C3COC(=O)C23)OCO4)cc(OC)c1O` (stereo unspecified) + COC1C(OC(N)=O)C(O)C(Oc2ccc3c(O)c(NC(=O)c4ccc(O)c(CC=C(C)C)c4)c(=O)oc3c2C)OC1(C)C yielded an IC50 (second compound 0.0316 µM) of 155 nM, an IC50 (second compound 0.1 µM) of 156 nM and an IC50 (second compound 0.316 µM) of 149 nM. For the same molecule, the IC50 (second compound 1 µM) was 153 nM, the IC50 (second compound 3.16 µM) was 166 nM and the IC50 (second compound 10 µM) was 163 nM. For the same molecule, the viability, T/C [1] was 88.3%, the viability, T/C [2] was 72.4% and the viability, T/C (second compound 0.0316 µM, first compound 0.316 µM) was 13.8%. The viability, T/C (second compound 0.0316 µM, first compound 1 µM) was 8.42%, the viability, T/C (second compound 0.0316 µM, first compound 3.16 µM) was 5.21% and the viability, T/C (second compound 0.0316 µM, first compound 10 µM) was 6.94%. The viability, T/C [3] was 97.4%, the viability, T/C [4] was 72.1% and the viability, T/C (second compound 0.1 µM, first compound 0.316 µM) was 14.5%. For the same molecule, the viability, T/C (second compound 0.1 µM, first compound 1 µM) was 8.54%, the viability, T/C (second compound 0.1 µM, first compound 3.16 µM) was 5.95% and the viability, T/C (second compound 0.1 µM, first compound 10 µM) was 5.76%. The viability, T/C [5] was 97.7%, the viability, T/C [6] was 69.6% and the viability, T/C (second compound 0.316 µM, first compound 0.316 µM) was 12.8%. It also gave a viability, T/C (second compound 0.316 µM, first compound 1 µM) of 8.42%, a viability, T/C (second compound 0.316 µM, first compound 3.16 µM) of 5.87% and a viability, T/C (second compound 0.316 µM, first compound 10 µM) of 6.37%. It also gave a viability, T/C [7] of 98.3%, a viability, T/C [8] of 71.6% and a viability, T/C (second compound 1 µM, first compound 0.316 µM) of 13.1%. It also gave a viability, T/C (second compound 1 µM, first compound 1 µM) of 7.07%, a viability, T/C (second compound 1 µM, first compound 3.16 µM) of 6.69% and a viability, T/C (second compound 1 µM, first compound 10 µM) of 5.99%. The viability, T/C [9] was 87.1%, the viability, T/C [10] was 75.9% and the viability, T/C (second compound 3.16 µM, first compound 0.316 µM) was 17%. It also gave a viability, T/C (second compound 3.16 µM, first compound 1 µM) of 8.05%, a viability, T/C (second compound 3.16 µM, first compound 3.16 µM) of 5.46% and a viability, T/C (second compound 3.16 µM, first compound 10 µM) of 6.77%. The viability, T/C [11] was 101%, the viability, T/C [12] was 75.6% and the viability, T/C (second compound 10 µM, first compound 0.316 µM) was 15.3%. For the same molecule, the viability, T/C (second compound 10 µM, first compound 1 µM) was 8.14%, the viability, T/C (second compound 10 µM, first compound 3.16 µM) was 6.45% and the viability, T/C (second compound 10 µM, first compound 10 µM) was 5.77%.
